The results in this text go back to ChEMBL document CHEMBL1201862, “PubChem BioAssay data set” (2004).

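Test compounds were applied to cells in 96-well plates for 48 hours at 5 doses. Abbreviation: GI50, concentration required for 50% inhibition of growth.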 Activity calls are given as the source filed them. No stated cut-off is given here; in the data, active = GI50 up to about 1.1 µM and inactive = higher. Where only a bound is given, the exact number is not on record here.

Among the test systems are KM12; CAKI-1; RXF 393; SR; HCC 2998; OVCAR-5; M14; HT-29; HL-60; SNB-75; LOX IMVI; EKVX; HCT-15; UACC-257; PC-3; NCI-H460; LXFL 529; ACHN; SK-MEL-2; OVCAR-3.
Common to all, as to test: DTP human tumour cell line panel, 48 h

For orientation: GI50 means the concentration giving 50% growth inhibition. On to `CCOc1ccc2c(ccc(/C=C/c3cc(C)c4cccnc4c3O)[n+]2C)c1`, for which the 50% growth inhibitory concentration (GI50) is 0.908 µM (active) in the experiment on KM12; 4.29 µM (inactive) in the experiment with CAKI-1; 3.71 µM (inactive) in the experiment on RXF 393; 0.153 µM (active) in the experiment on SR; 0.746 µM (active) with HCC 2998; 1.24 µM (inactive) in the experiment on OVCAR-5. Further, the GI50 in the experiment on M14 was 0.836 µM (active); with HT-29, 0.378 µM (active); with HL-60, 0.141 µM (active); with SNB-75, 2.29 µM (inactive); in the experiment on LOX IMVI, 0.356 µM (active); in the experiment on EKVX it was 0.925 µM (active). Further, the GI50 in the experiment on HCT-15 was 3.66 µM; with UACC-257, 0.933 µM (active); in the experiment with PC-3, 0.773 µM (active); with NCI-H460 it was 0.281 µM (active); with LXFL 529, 0.384 µM (active); in the experiment on ACHN, 1.4 µM (inactive). In addition, the GI50 is 0.498 µM (active) in the experiment with SK-MEL-2 and 0.129 µM (active) in the experiment with OVCAR-3.

In the case of `Cc1c(C(=O)C/C(=N/NC(=O)C[N+](C)(C)C)C(=O)Nc2ccc(Cl)cc2)[n+]([O-])c2ccccc2[n+]1[O-]`, the GI50 in the experiment on KM12, in the experiment with CAKI-1, with RXF 393, in the experiment with SR, with HCC 2998 and with OVCAR-5 was > 100 µM (inactive) in each case. For the same molecule, the GI50 in the experiment on M14, in the experiment with HT-29, with HL-60, in the experiment with SNB-75, with LOX IMVI and in the experiment with EKVX was > 100 µM (inactive) each time. Further, the GI50 was more than 100 µM in the experiment on HCT-15; > 100 µM (inactive) in the experiment with UACC-257; > 100 µM (inactive) with NCI-H460; > 100 µM (inactive) in the experiment on LXFL 529; > 100 µM (inactive) with ACHN; > 100 µM (inactive) with SK-MEL-2. For the same molecule, the GI50 in the experiment on OVCAR-3 is > 100 µM (inactive).

In the case of `O=C1C2=C(c3ccccc31)C(c1ccccc1)N1C(=O)CSC1=N2` (stereo not drawn), the GI50 with KM12 was > 53.6 µM (inactive); with CAKI-1 it was 49.8 µM (inactive); in the experiment with RXF 393 it was 25.6 µM (inactive); with SR, 26.4 µM (inactive); in the experiment on HCC 2998, > 68.1 µM (inactive); in the experiment on OVCAR-5 it was > 85.5 µM (inactive). The GI50 is 49.4 µM (inactive) with M14; 43.4 µM (inactive) in the experiment on HT-29; 40.1 µM (inactive) in the experiment on HL-60; 23.3 µM (inactive) in the experiment with SNB-75; 37.3 µM (inactive) in the experiment with LOX IMVI; > 55.7 µM (inactive) in the experiment on EKVX. Further, the GI50 in the experiment on HCT-15 is 40.3 µM; in the experiment on UACC-257, > 86.5 µM (inactive); in the experiment with PC-3, 34.4 µM (inactive); in the experiment with NCI-H460 it was > 57.1 µM (inactive); in the experiment on LXFL 529, 52 µM (inactive); in the experiment on ACHN, > 79.4 µM (inactive). Besides, the GI50 in the experiment on SK-MEL-2 is 49 µM (inactive); with OVCAR-3, 51.2 µM (inactive).

For `O=C(Nc1ccccc1)OCc1nc2c([nH]1)C(=O)C=CC2=O`, the GI50 in the experiment on KM12 is 15.6 µM (inactive); in the experiment on CAKI-1 it was 0.35 µM (active); with RXF 393, 10.8 µM (inactive); with SR, 19.5 µM (inactive); in the experiment on HCC 2998 it was 16.5 µM (inactive); in the experiment with OVCAR-5 it was 22.2 µM (inactive). For the same molecule, the GI50 is 16 µM (inactive) with M14; 27.5 µM (inactive) in the experiment on HT-29; 3.29 µM (inactive) in the experiment on HL-60; 19.3 µM (inactive) in the experiment on SNB-75; 16.1 µM (inactive) with LOX IMVI; 20.7 µM (inactive) in the experiment with EKVX. In addition, the GI50 in the experiment on HCT-15 is 18.2 µM; with UACC-257 it was 3.42 µM (inactive); in the experiment with NCI-H460, 19.8 µM (inactive); in the experiment with LXFL 529, 3.1 µM (inactive); with ACHN, 12.6 µM (inactive); in the experiment on SK-MEL-2 it was 19.8 µM (inactive). Besides, the GI50 with OVCAR-3 was 16.7 µM (inactive).
